# Assay results reported in ChEMBL document CHEMBL1201862, “PubChem BioAssay data set” (2004).
# Active and inactive are the calls of the source.
# Columns and labels:
# [1] = target: Cytochrome P450 3A4 (Homo sapiens, UniProt P08684);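 note: CYP3A4 tested as one member of a cytochrome P450 panel screen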
# [2] = Luminescence Cell-Based Dose Retest to Confirm Inhibitors of Cancer Stem Cells. [Related pubchem assays (depositor defined):AID2717, AID2721]; format: functional; details: Homo sapiens
# [3] = viability of uninfected HEp-2 cells – cell-based, HTS, cytotoxicity control for RSV inhibitor project, dose response (AID 2410); format: functional; details: human respiratory syncytial virus
# [4] = target: T1, Streptokinase A (Streptococcus pyogenes serotype M1, UniProt P10520); assay: viability-normalized secreted streptokinase activity reduction – plasminogen activation absorbance, OD405, dose response (AID 1914); format: functional, Streptococcus pyogenes M1 GAS;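 note: secreted streptokinase activity via plasminogen activation per viability signal from cell pellet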
# T1 sequence (P10520 whole entry): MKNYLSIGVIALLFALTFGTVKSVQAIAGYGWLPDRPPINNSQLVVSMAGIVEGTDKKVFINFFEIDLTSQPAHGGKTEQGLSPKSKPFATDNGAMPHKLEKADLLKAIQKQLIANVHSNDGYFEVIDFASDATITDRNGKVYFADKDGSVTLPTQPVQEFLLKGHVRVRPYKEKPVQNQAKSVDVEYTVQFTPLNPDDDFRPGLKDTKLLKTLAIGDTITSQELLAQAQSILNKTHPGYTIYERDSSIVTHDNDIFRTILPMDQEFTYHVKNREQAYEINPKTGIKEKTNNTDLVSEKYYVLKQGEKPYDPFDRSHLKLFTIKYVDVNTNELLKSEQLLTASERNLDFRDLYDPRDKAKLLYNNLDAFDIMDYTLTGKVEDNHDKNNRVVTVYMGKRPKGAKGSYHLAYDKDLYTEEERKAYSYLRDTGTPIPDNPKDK
# [5] = test system: Streptococcus; assay: GAS UMAA2166 growth inhibition – luminescence, BacTiterGlo, counter-screen for streptokinase expression inhibitor project, dose response (AID 1915); format: functional, organism-based;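 note: potency for reduction of bacterial viability or growth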
# [6] = test system: Streptococcus sp. 'group A'; assay: Streptococcus pyogenes SK(-)GAS viability under kanamycin – luminescence, BacTiterGlo, confirmation, counter-screen for streptokinase expression inhibitor project, dose response (AID 1900); format: functional, organism-based
# [7] = NIH3T3 cell viability loss – ATP luminescence, mouse fibroblasts, counter-screen, dose response (AID 2010); format: functional, cell-based;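 note: cells exposed to compound for about 90 hours before reading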
# [8] = Trypanosoma cruzi growth suppression in host cells – NIH3T3 host cells, beta-gal luminescence, confirmation (AID 2044); format: functional, cell-based;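 note: intracellular parasites grown in NIH/3T3 mouse fibroblasts as host cells; luminescent beta-galactosidase reporter signal from transgenic T. cruzi replicating inside host cells; inhibitors lower the luminescence signal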
# [9] = test system: INS1; assay: INS-1E survival protection against cytokine death – cell-based, luminescence, retest, dose response (AID 449756); format: functional; details: Rattus norvegicus;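 note: cell death triggered by IL-1 beta plus TNF-alpha plus IFN-gamma mixture; protective hits raise ATP signal compared with cytokine alone wells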
# [10] = target: T2, Cytochrome P450 1A2 (Homo sapiens, UniProt P05177);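 note: PubChem cytochrome P450 panel assay, CYP1A2 panel member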
# T2 sequence (P05177 whole entry): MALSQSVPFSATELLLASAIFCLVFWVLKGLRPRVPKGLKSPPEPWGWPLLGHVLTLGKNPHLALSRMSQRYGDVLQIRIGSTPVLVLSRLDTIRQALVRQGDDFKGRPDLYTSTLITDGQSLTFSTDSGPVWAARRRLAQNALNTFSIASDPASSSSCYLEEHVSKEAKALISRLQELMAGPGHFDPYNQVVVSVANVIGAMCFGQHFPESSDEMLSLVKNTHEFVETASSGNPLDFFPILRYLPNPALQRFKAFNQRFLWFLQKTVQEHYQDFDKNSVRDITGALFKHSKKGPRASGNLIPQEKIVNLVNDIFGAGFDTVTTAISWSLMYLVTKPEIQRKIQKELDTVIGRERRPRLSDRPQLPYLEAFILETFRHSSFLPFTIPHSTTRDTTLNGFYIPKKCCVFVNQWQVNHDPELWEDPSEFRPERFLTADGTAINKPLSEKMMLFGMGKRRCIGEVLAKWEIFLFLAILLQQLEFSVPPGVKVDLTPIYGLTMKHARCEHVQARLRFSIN
# [11] = target: T3, Protein RecA (Mycobacterium tuberculosis, UniProt P9WHJ3); assay: Fluorescence Cell-Free Homogeneous Dose Retest to Identify Inhibitors of RecA-Intein Splicing Activity. [Related pubchem assays (depositor defined):AID2097, AID2223, AID489010, AID492950]; format: functional
# T3 sequence (P9WHJ3 whole entry): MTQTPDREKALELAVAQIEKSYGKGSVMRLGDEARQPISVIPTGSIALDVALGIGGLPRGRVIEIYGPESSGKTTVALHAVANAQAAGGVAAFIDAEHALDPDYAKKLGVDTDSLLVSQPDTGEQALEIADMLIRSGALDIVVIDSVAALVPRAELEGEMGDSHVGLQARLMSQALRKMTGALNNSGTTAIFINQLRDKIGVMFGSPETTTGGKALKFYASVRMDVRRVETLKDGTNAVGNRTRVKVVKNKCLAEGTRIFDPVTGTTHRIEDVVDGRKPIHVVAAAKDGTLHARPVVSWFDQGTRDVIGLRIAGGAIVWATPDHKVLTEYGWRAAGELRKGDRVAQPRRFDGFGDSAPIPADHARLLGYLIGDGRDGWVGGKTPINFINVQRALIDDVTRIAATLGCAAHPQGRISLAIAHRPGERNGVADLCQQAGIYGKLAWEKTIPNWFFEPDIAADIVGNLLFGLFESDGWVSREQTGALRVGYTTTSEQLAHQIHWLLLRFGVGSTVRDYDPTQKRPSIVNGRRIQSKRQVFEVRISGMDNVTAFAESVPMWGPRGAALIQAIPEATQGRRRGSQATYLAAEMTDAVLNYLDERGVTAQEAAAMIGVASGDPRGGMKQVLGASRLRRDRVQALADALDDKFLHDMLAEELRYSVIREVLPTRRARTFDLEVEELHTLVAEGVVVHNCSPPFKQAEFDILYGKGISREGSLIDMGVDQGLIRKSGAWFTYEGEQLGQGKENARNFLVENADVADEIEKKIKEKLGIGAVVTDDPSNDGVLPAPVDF
# [12] = target: T4, Heat shock factor protein 1 (Mus musculus, UniProt P38532); assay: decrease of HSF1-responsive luciferase luminescence – cell-based, NIH3T3, dose retest, confirmation (AID 2382); format: functional;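 note: NIH3T3 fibroblasts with HSF1-driven luciferase reporter stressed by proteasome inhibitor MG132; luminescence from HSF1-driven luciferase expression after 8 hours of MG132 stress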
# T4 sequence (P38532 whole entry): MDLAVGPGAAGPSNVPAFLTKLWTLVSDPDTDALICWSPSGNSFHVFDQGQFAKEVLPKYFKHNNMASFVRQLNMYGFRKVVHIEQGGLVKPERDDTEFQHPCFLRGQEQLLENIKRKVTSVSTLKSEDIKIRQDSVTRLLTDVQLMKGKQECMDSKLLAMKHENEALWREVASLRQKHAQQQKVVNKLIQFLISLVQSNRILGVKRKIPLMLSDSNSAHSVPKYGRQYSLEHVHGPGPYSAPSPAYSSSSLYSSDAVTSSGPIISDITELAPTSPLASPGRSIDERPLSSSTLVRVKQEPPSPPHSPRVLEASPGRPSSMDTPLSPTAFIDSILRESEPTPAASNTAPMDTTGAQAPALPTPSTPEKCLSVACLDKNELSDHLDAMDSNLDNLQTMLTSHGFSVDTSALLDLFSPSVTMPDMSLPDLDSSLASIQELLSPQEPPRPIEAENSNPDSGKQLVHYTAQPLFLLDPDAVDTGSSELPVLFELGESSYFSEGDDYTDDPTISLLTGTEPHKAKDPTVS
# [13] = target: Cytochrome P450 2C19 (Homo sapiens, UniProt P33261); assay: Cytochrome panel assay with activity outcomes. Panel member name: p450-cyp2c19 Compounds with AC50 equal or less than 10 uM are considered active; format: functional; details: read-out: AC50
# Chain of Cytochrome P450 2C19 (P33261 whole entry): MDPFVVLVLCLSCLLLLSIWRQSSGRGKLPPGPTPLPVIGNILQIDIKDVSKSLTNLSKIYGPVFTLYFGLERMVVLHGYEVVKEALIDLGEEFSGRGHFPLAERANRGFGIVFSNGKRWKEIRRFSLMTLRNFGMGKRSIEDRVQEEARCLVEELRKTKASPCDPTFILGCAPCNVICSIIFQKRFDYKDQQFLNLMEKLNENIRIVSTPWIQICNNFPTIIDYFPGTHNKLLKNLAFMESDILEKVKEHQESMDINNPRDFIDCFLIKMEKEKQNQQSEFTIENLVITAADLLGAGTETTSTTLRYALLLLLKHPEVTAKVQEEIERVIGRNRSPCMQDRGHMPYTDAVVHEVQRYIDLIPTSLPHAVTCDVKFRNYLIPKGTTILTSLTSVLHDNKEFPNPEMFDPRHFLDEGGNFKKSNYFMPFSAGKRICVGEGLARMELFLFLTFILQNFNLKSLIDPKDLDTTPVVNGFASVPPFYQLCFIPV
# Chain of Cytochrome P450 3A4 (P08684 whole entry): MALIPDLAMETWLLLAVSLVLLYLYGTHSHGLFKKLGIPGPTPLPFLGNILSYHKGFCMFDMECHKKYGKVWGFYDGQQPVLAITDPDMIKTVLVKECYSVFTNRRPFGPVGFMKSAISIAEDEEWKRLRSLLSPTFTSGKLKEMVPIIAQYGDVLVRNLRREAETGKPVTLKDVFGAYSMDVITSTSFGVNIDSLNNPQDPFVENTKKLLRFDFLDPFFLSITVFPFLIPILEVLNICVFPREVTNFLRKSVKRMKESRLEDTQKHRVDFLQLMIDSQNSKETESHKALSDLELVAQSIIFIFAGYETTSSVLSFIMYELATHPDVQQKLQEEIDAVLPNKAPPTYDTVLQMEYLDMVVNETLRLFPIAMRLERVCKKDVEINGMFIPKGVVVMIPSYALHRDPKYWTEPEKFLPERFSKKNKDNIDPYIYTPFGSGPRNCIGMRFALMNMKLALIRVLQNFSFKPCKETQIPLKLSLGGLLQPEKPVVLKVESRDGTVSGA
compound,measurement,setting,value
Cc1ccc(NC(S)=NC2CCCC2)cc1,AC50,[1],10 µM (inconclusive)
Cc1[nH]n(-c2ccccc2)c(=O)c1/C=C1/C(=O)NN(c2ccc(F)cc2)C1=O,AC50,[2],4.08 µM (active)
O=C(Nc1ccc2c(c1)OCO2)C1CCN(C(=O)CSc2ncnc3ccccc23)CC1,CC50,[3],41.4 µM (active)
O=C(Nc1ccc(O)cc1)c1ccc(NC(=O)c2cccs2)cc1,AC50,[2],3.51 µM (active)
NS(=O)(=O)Cc1noc2ccccc12,AC50,[1],31.6 µM (inconclusive)
CCN(CC)CCN(C(=O)C1=COCCO1)c1nc2cc(C)cc(C)c2s1,EC50,[4],> 150 µM (not active)
same,EC50,[5],> 150 µM (not active)
same,EC50,[6],> 150 µM (not active)
O=C(Nc1ccc(F)cc1)N1CCCCCC1,EC50,[4],> 150 µM (not active)
same,EC50,[5],> 150 µM (not active)
same,EC50,[6],> 150 µM (not active)
CCCC(O)(c1ccc(Cl)cc1)C(CN1CCOCC1)c1ccc(Cl)cc1 (stereo not given),AC50,[2],6 µM (active)
CSc1ccc(C2=CC(=O)C[C@H](c3ccc(Cl)cc3)C2)cc1,AC50,[2],1.7 µM (active)
CC(C)N=C(S)NC(c1ccccc1)(c1ccccc1)c1ccccc1,EC50,[5],> 150 µM (not active)
same,EC50,[7],> 60 µM (not active)
same,EC50,[8],3.99 µM (active)
same,EC50,[6],6.6 µM (active)
same,AC50,[9],8.18 µM (active)
CSc1nc(-c2ccc(C)cc2)nc(N)c1C#N,CC50,[3],49.6 µM (active)
COc1ccc(NC(=O)N2CCCC3(CCN(C(=O)c4cc(C(F)(F)F)cc(C(F)(F)F)c4)CC3)C2)cc1,AC50,[1],10 µM (inconclusive)
Oc1ccc(Oc2ccc(Oc3ccc(O)cc3)cc2)cc1,EC50,[4],> 150 µM (not active)
same,EC50,[5],18.4 µM (active)
same,EC50,[6],8.4 µM (active)
CC(COc1ccc(C(C)C)cc1)NC(=O)c1ccc(Br)o1 (stereo not given),EC50,[4],> 150 µM (not active)
same,EC50,[5],> 150 µM (not active)
same,EC50,[6],45.6 µM (active)
COc1ccc(CNc2cc(-c3ccccc3CN(C)C)ncn2)c(OC)c1,AC50,[1],15.8 µM (inconclusive)
same,AC50,[10],15.8 µM (inconclusive)
O=C1CCCC=C1[C@H](CCc1ccccc1)OC(=O)c1ccc(Br)cc1,AC50,[1],5.01 µM (inconclusive)
CC1=NN(c2cccc(Cl)c2)C(=O)C12CC(C)=C(C)CS2 (stereo not given),EC50,[11],13.2 µM (active)
COc1cc(/C=C(\C#N)c2ccccn2)ccc1OCC(=O)Nc1ccc(Br)cc1,AC50,[2],1.71 µM (active)
CCCCOc1ccccc1C1C(C(=O)OC)=C(C)N(C)C(C)=C1C(=O)OC,CC50,[3],> 50 µM (active)
Cc1cccn2cc(-c3cccc(S(=O)(=O)N4CC(C)OC(C)C4)c3)nc12 (stereo not given),CC50,[3],44.6 µM (active)
COCc1ccc(O)c2ncccc12,AC50,[9],5 µM (active)
CCCC(=O)N1c2ccccc2C(N(C(C)=O)c2ccccc2)CC1C (stereo not given),AC50,[1],0.891 µM (inconclusive)
COc1cc(/C=N/NC(=O)c2cc(-c3cccc(Br)c3)nc3ccccc23)cc(OC)c1O,CC50,[3],36 µM (active)
COc1ccc(CNC(=O)Cc2csc(NC(=O)Nc3ccccc3OC)n2)cc1,EC50,[4],> 150 µM (not active)
same,EC50,[5],> 150 µM (not active)
same,EC50,[6],> 150 µM (not active)
CCOC(=O)N1CCN(c2cc(N)c([N+](=O)[O-])cc2F)CC1,CC50,[3],> 50 µM (active)
Cc1ccc(N=Nc2c(N)nn3c(O)c4c(nc23)CCCC4)cc1,AC50,[1],7.94 µM (inconclusive)
Cc1cc(OCc2nc(-c3ccc(NC(=O)c4cccnc4)cc3)no2)ccc1Cl,CC50,[3],> 50 µM (active)
same,AC50,[9],0.624 µM (active)
O=C(NC(=S)Nc1cccc(-c2ccc(CO)o2)c1)c1cccs1,EC50,[4],> 150 µM (not active)
same,EC50,[5],68.4 µM (active)
same,EC50,[6],23.1 µM (active)
C/C(=N/NC(=O)c1cc(-c2ccccc2)nc2c(Cl)cccc12)c1cccnc1,EC50,[4],25.9 µM (inconclusive)
same,EC50,[5],> 150 µM (not active)
same,EC50,[6],> 150 µM (not active)
CCC(C)n1c(-c2cccs2)nc2nc3ccccc3nc21 (stereo not given),AC50,[2],2.73 µM (active)
O=C(CC1CC2CCC1C2)NCCc1ccc(Cl)cc1 (stereo not given),AC50,[9],> 260 µM (inactive)
O=C(c1ccccc1)c1sc(N2CCCCCC2)nc1-c1ccccc1,CC50,[3],31.1 µM (active)
Cn1cc(Cl)c(-c2nnc(S)n2-c2ccc(F)cc2)n1,EC50,[12],> 195 µM (not active)
COc1ccc(N2C(=O)NC3CC2(C)Oc2ccccc23)cc1OC (stereo not given),AC50,[13],7.94 µM (inconclusive)
same,AC50,[1],22.4 µM (inconclusive)
O=C(Nc1ccccc1)N1CC[C@@]2(CCCN(C(=O)c3ccncc3)C2)C1,AC50,[1],15.8 µM (inconclusive)
COc1ccc(NC(=O)N2CCCC3(CCN(C(=O)c4cccc(F)c4)CC3)C2)cc1,AC50,[1],15.8 µM (inconclusive)
Cc1cc2nc(C3CCCN(C(S)=Nc4ccccc4)C3)[nH]c2cc1C (stereo not given),AC50,[13],7.08 µM (inconclusive)
same,AC50,[1],0.141 µM (inconclusive)
same,AC50,[10],1.58 µM (inconclusive)
